Assay results reported in ChEMBL document CHEMBL2074342, “Kinetic analysis of rhodamines efflux mediated by the multidrug resistance protein (MRP1)” (Biophys J, 2003).

Each compound was assayed against Multidrug resistance-associated protein 1 (Homo sapiens, UniProt P33527) (assay: TP_TRANSPORTER: intracellular accumulation in MRP1-expressing GLC4/ADR cell). Details: glc-4/adr.
Format: functional, cell-based

Sequence of Multidrug resistance-associated protein 1 (P33527 whole entry): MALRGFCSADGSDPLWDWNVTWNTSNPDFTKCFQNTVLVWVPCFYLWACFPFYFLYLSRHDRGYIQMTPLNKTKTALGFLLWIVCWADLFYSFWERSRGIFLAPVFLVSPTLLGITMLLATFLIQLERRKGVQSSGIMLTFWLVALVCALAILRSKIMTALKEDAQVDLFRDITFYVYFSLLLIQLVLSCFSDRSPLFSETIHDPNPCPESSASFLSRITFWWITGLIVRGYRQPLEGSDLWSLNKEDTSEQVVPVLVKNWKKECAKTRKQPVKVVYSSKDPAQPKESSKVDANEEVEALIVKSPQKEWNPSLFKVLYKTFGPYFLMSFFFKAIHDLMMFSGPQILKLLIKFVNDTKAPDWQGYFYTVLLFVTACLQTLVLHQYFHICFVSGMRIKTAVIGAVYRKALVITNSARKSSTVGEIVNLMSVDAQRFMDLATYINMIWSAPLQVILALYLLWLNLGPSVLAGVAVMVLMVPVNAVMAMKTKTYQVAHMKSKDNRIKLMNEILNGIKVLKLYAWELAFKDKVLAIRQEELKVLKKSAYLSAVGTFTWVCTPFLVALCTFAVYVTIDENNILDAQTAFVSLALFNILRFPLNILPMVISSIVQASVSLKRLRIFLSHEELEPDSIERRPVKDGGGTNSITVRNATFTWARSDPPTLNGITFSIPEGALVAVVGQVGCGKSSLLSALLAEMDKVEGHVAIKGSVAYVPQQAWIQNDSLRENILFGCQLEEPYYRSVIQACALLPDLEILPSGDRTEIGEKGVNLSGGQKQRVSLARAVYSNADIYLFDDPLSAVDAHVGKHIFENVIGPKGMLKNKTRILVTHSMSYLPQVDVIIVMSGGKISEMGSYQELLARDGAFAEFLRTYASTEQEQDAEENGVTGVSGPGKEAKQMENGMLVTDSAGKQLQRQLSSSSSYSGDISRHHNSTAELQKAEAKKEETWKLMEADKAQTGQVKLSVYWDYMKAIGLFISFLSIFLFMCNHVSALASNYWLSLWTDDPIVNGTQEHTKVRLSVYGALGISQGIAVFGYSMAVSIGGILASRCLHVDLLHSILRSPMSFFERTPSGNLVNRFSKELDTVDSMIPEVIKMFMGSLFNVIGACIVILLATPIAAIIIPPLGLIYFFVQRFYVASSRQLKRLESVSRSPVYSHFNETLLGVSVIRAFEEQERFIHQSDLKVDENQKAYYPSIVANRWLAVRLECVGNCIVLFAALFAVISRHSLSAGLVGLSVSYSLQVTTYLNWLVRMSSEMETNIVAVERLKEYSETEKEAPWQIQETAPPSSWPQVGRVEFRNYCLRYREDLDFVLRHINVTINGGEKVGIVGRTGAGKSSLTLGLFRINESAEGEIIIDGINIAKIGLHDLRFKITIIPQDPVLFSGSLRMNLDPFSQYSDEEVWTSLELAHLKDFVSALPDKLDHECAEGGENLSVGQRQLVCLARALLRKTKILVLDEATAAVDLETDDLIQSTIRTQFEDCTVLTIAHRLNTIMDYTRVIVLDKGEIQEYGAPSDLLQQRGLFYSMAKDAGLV

Row | Activity | SMILES
1 | substrate [+] | CC/N=c1\cc2oc3cc(NCC)c(C)cc3c(-c3ccccc3C(=O)OCC)c-2cc1C.Cl [RHODAMINE 6G HYDROCHLORIDE]
2 | substrate [+] | COC(=O)c1ccccc1-c1c2ccc(=[N+](C)C)cc-2oc2cc(N(C)C)ccc12 [RHODAMINE II]
3 | substrate [+] | CCOC(=O)c1ccccc1-c1c2ccc(=[N+](C)C)cc-2oc2cc(N(C)C)ccc12 [RHODAMINE I]

Row | SMILES | Activity
4 | CN(C)c1ccc2c(-c3ccccc3C(=O)[O-])c3ccc(N(C)C)cc3[o+]c2c1 [TETRAMETHYLRHODAMINE] | substrate [+]
